# pEC50: −log10 of the molar value. Calls of active or inactive are those of the source.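 The calls were made as follows: active = mean EC50 at or below 20 µM; inactive = the rest.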
# System: CHO-XBP1 cells, IRE1-XBP1 luciferase reporter luminescence
# Assay: IRE1-XBP1 adaptive UPR arm activators, SAR follow-up, CHO-XBP1 cells, luminescence (AID 540311)
SMILES,EC50,pEC50
COc1cc(-c2ccccc2)nc(Nc2nc(C)c3ccccc3n2)n1,> 80 µM (inactive),
Cc1ccnc(Nc2nc(-c3ccccc3)cc(=O)[nH]2)n1,> 80 µM (inactive),
Cc1nc(Nc2ncccn2)nc2ccccc12,> 80 µM (inactive),
Cc1cc(-c2ccccc2)nc(Nc2nc(C)c3ccccc3n2)n1,> 80 µM (inactive),
Cc1cc(=O)[nH]c(Nc2nc(C)c3ccccc3n2)n1,> 80 µM (inactive),
Cc1nc(Nc2nccc(-c3ccccc3)n2)nc2ccccc12,> 80 µM (inactive),
Cc1nc(Nc2nc(-c3ccccc3)cc(=O)[nH]2)nc2ccccc12,,4.89
Cc1ccnc(Nc2ncccn2)n1,> 80 µM (inactive),

# From PubChem BioAssay AID540311 (Sanford-Burnham Center for Chemical Genomics, 2011)
